Source: patent US20240423995A1, “C-KIT INHIBITORS AND USES FOR TREATING AND PREVENTING INFLAMMATORY CONDITIONS” (GEORGETOWN UNIVERSITY, priority 2023, published 2024)

Legend:
KIT autoinhibited = target: T1, KIT autoinhibited (Homo sapiens, UniProt P10721); test: KINOMEscan competition binding screen, KIT autoinhibited; conditions: for remaining binding at 10 µM: read-out: % Ctrl @ 10 μM
T1 construct: purchased Eurofins DiscoverX Corporation
Method: (§1) The KINOMEscan™ screening platform (Eurofins DiscoverX Corporation, San Diego, USA) was performed using an active site-directed competition binding assay to quantitatively measure interactions between BK40143, BK40197, BK40195, and BK40196 and more than 450 human kinases and disease relevant mutant variants. […] Screening “hits” were identified by measuring the amount of kinase captured in test (BK40143, BK40197, BK40195, and BK40196) versus control samples by using a quantitative and ultra-sensitive qPCR method that detects the associated DNA label. BK40143, BK40197, BK40195, and BK40196 were screened at 10 μM concentration, and results for primary screen binding interactions were reported as ‘% Ctrl’ (POC), where lower numbers indicate stronger hits and calculated as follows:
(§2) [formula] • test compound=BK40143 or BK40197 or BK40195 or BK40196 • negative control=DMSO (100% Ctrl) • positive control=control compound (0% Ctrl)
(§3) Based on screening data of profiled compounds, a proportional relationship between primary screening results and corresponding compound/target affinities can be described as binding constants (Kd values) for the indicated ranges of percent of control (PoC) values, with tighter binding (higher affinity) interactions associated with lower PoC values, and weaker binding (lower affinity) associated with higher PoC values. Briefly, kinase-tagged T7 phage strains were grown in parallel in 24-well blocks in an E. coli host derived from the BL21 strain. E. coli were grown to log-phase and infected with T7 phage from a frozen stock (multiplicity of infection=0.4) and incubated with shaking at 32° C. until lysis (90-150 minutes). The lysates were centrifuged (6,000×g) and filtered ([…]) to remove cell debris. The remaining kinases were produced in HEK-293 cells and subsequently tagged with DNA for qPCR detection. Streptavidin-coated magnetic beads were treated with biotinylated small molecule ligands for 30 minutes at room temperature to generate affinity resins for kinase assays. The liganded beads were blocked with excess biotin and washed with blocking buffer (SeaBlock (Pierce), 1% BSA, 0.05% Tween 20, 1 mM DTT) to remove unbound ligand and to reduce non-specific phage binding. Binding reactions were assembled by combining kinases, liganded affinity beads, and test compounds in 1× binding buffer (20% SeaBlock, 0.17×PBS, 0.05% Tween 20, 6 mM DTT). Test compounds were prepared as 100× stocks in 100% DMSO and directly diluted into the assay. All reactions were performed in polypropylene 384-well plates in a final volume of 0.02 ml. The assay plates were incubated at room temperature with shaking for 1 hour and the affinity beads were washed with wash buffer (1×PBS, 0.05% Tween 20). The beads were then re-suspended in elution buffer (1×PBS, 0.05% Tween 20, 0.5 μM non-biotinylated affinity ligand) and incubated at room temperature with shaking for 30 minutes. The kinase concentration in the eluates was measured by qPCR.

SYK = target: T2, SYK (Homo sapiens, UniProt P43405); test: KINOMEscan competition binding screen, SYK; conditions: for remaining binding at 10 µM: read-out: % Ctrl @ 10 μM
T2 construct: purchased Eurofins DiscoverX Corporation
Method: as §1, §2, §3

KIT (D816H) = target: T3, KIT (D816H) (Homo sapiens, UniProt P10721, D816H); test: KINOMEscan competition binding screen, KIT (D816H); conditions: for remaining binding at 10 µM: read-out: % Ctrl @ 10 μM
T3 construct: purchased Eurofins DiscoverX Corporation
T3 sequence (P10721 26-976 D816H): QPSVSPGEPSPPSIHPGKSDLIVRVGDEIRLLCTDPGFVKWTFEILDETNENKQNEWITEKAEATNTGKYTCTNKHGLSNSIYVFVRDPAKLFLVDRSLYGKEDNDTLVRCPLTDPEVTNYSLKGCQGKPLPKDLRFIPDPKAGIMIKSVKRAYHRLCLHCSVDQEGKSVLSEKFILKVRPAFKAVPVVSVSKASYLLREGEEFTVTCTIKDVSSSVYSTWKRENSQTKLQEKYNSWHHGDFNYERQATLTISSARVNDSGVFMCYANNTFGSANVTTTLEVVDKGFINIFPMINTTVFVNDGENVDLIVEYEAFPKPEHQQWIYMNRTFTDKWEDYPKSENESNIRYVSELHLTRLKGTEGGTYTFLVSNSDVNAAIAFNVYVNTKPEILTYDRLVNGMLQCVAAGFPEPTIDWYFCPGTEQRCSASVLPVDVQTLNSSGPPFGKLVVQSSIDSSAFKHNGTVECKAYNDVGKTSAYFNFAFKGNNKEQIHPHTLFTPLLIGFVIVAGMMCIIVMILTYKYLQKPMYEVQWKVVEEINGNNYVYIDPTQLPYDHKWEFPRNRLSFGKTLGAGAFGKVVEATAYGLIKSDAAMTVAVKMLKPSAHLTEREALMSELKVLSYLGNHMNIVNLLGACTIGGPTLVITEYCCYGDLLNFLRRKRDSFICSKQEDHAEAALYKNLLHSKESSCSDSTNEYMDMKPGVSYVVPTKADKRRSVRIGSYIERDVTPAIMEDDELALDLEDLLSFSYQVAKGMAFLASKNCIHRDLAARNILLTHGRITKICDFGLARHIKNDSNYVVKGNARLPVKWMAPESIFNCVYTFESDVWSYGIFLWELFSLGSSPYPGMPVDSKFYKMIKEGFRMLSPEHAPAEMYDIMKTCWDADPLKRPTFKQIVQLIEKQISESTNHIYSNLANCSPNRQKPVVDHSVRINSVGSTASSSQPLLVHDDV
Method: as §1, §2, §3

mast cell degranulation = test: Compound 48/80-induced mast cell degranulation in wild type C57BL/6 mice, toluidine blue blood smear; type: in vivo; conditions: for mast cell degranulation 0.5-1.5 hours post-injection of C48/40: approximately two hours before I.P. injection of compound 48/80, toluidine blue blood smear; for effect on mast cell degranulation induced by C48/40: single I.P. injection two hours prior to compound 48/80 treatment, blood smear
Method: Wild type C57BL/6J mice were treated with C48/40 to induce mast cell activation. Compound 48/80 is a polymer produced by the condensation of N-methyl-p-methoxyphenethylamine with formaldehyde. It promotes histamine release, and in biochemical research, compound 48/80 (for example, Catalog No. C2313, Sigma-Aldrich, St. Louis, MO) is used to promote mast cell degranulation. Male and female, 4-8 months old wild type C57BL/6 mice were treated only once with intraperitoneal (I.P.) injection of DMSO (control) or DMSO for 2 hours followed by C48/40 for 0.5-1.5 hours. Mice were injected with DMSO approximately 2 hours prior to injection (IP) with 50 μg C48/40 to show degranulation of mast cells 0.5-1.5 hours post-injection of C48/40. Animals were also injected with 20 mg/kg BK40197, BK40195 or BK40196; or 10 mg/kg BK40143 approximately two hours before I.P. injection of C48/40 to show the effects of the drugs on mast cell degranulation approximately 0.5-1.5 hours post-injection of C48/40. Drugs and C48/40 were injected on the same site. n=6 per treatment. Blood was collected and a smear was prepared and stained with Toluidine blue to show mast cell morphology.

c-kit = target: T4, c-kit (Homo sapiens, UniProt P10721); test: KINASESEEKER competition binding assay, c-kit; conditions: minimum 8-point curve, duplicate
T4 construct: purchased Luceome Biotechnologies, LLC
T4 sequence (P10721 26-976): as the sequence (P10721 26-976 D816H) above, with H791D counted along it
Method: Kinase assays were performed using KINASESEEKER™ (Luceome Biotechnologies, LLC; Tucson, AZ). KINASESEEKER™ is a homogeneous competition binding assay in which the displacement of an active site-dependent probe by an inhibitor is measured by a change in luminescence signal. Luminescence readout translates into a highly sensitive and robust assay with low background and minimal interference from test compounds. See J. Am. Chem. Soc., 2010, 132, 11727-11735.
Stock solutions of compounds were serially diluted in DMSO to make assay stocks. Prior to initiating IC50 determination, the test compounds were evaluated for false positives against split-luciferase. The compounds were screened against kinases at a minimum of 8 different concentrations in duplicate. For kinase assays, a 24 μL aliquot of lysate containing Cfluc-kinase and Fos-Nfluc was incubated for 2 hours with either 1 μL of DMSO (for no-inhibitor control) or compound solution in DMSO in presence of a kinase specific probe. 80 μL of luciferin assay reagent was added to each solution and luminescence was immediately measured on a luminometer.
The % Inhibition and % Activity Remaining was calculated using the following equation: […]
The % Activity Remaining was plotted against compound concentration and the IC50 was determined for each compound using a minimum 8-point curve.

T1 sequence (P10721 544-976 limits assumed): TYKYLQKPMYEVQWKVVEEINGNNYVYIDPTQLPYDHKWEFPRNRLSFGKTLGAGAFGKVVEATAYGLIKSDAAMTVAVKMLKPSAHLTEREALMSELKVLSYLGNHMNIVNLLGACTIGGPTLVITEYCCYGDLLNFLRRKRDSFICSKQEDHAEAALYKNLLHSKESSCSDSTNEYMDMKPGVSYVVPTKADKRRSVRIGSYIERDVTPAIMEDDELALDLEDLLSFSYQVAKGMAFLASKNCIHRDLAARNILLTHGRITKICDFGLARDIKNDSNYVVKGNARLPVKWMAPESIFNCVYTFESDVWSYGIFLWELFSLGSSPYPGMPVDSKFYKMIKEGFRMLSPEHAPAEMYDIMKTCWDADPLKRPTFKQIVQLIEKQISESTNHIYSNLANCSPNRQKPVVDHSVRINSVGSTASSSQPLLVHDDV

| inhibition at 10 µM (KIT autoinhibited) [%] | remaining binding at 10 µM (KIT autoinhibited) [%] | inhibition at 10 µM (SYK) [%] | remaining binding at 10 µM (SYK) [%] | inhibition at 10 µM (KIT (D816H)) [%] | remaining binding at 10 µM (KIT (D816H)) [%] | IC50 (c-kit) [nM] | Structure (SMILES) | mast cell degranulation 0.5-1.5 hours post-injection of C48/40 (mast cell degranulation; 10 mg/kg) | effect on mast cell degranulation induced by C48/40 (mast cell degranulation) | mast cell degranulation 0.5-1.5 hours post-injection of C48/40 (mast cell degranulation; 20 mg/kg) |
| --- | --- | --- | --- | --- | --- | --- | --- | --- | --- | --- |
| 31 | 69 | 94.5 | 5.5 | 54 | 46 | 750 ± 110 | Cc1cccc(-c2cc3nccc(Nc4ccccc4)c3s2)c1 [BK40143] | absence of mast cell degranulation | significantly prevented mast cell degranulation |  |
| 78 | 22 | 88 | 12 | 93.9 | 6.1 | 288 ± 23 | COc1cccc(Nc2ccnc3cc(-c4cccc(C)c4)sc23)c1 [BK40195] |  | significantly prevented mast cell degranulation | absence of mast cell degranulation |
| 44 | 56 | 97.7 | 2.3 | 94.1 | 3.9 | 276 ± 35 | Cc1cccc(-c2cc3nccc(Nc4cccc(O)c4)c3s2)c1 [BK40196] | absence of mast cell degranulation | significantly prevented mast cell degranulation |  |

| Structure (SMILES) | inhibition at 10 µM (KIT autoinhibited) [%] | remaining binding at 10 µM (KIT autoinhibited) [%] | inhibition at 10 µM (SYK) [%] | remaining binding at 10 µM (SYK) [%] | inhibition at 10 µM (KIT (D816H)) [%] | remaining binding at 10 µM (KIT (D816H)) [%] | IC50 (c-kit) [nM] | mast cell degranulation 0.5-1.5 hours post-injection of C48/40 (mast cell degranulation; 10 mg/kg) | effect on mast cell degranulation induced by C48/40 (mast cell degranulation) | mast cell degranulation 0.5-1.5 hours post-injection of C48/40 (mast cell degranulation; 20 mg/kg) |
| --- | --- | --- | --- | --- | --- | --- | --- | --- | --- | --- |
| Cc1cccc(-c2cc3nccc(N4CCOCC4)c3s2)c1 [BK40197] | 48 | 52 | 56 | 44 | 0 | 100 |  |  | significantly prevented mast cell degranulation | absence of mast cell degranulation |
